Data as given in the RepoRT retention time repository.

Test: Agilent ZORBAX 300 SB-C18, 150 × 1 mm, 3.5 µm; A: water + 0.01% heptafluorobutyric acid; B: acetonitrile + 0.01% heptafluorobutyric acid; gradient (min/%B) 0/0 100/90
Settings: stereoisomer not certain
In the case of `CCCCCCCCCCNCCCCCCCCCC`, the LC retention time is reported as 17.8 min. In the case of `Cc1ccc(CNC(C)(C)C)s1`, the LC retention time is reported as 8.46 min. `c1coc(CN2CCNCC2)c1` gave an LC retention time of 7.3 min. For `Cc1cc(C)c2c(=O)n(CC(=O)NC(C)CCc3ccccc3)c(=O)n(-c3ccccc3)c2n1` (stereo unspecified), the LC retention time was 15.7 min. `O=C(NCCOc1ccccc1)Nc1cccc(NC(=O)NCCOc2ccccc2)c1` showed an LC retention time of 13.6 min. For `CN(C)CCCN1c2ccccc2Sc2ccccc21`, the LC retention time was 11.3 min. With `CN(C)c1cccc(C(=O)O)c1` the LC retention time was 8.69 min. Work on `O=Cc1cccc2[nH]ccc12` yielded an LC retention time of 9.79 min. For `C[n+]1cccc(C(N)=O)c1`, the LC retention time was 3.76 min. `CCCCCCCC(N)=O` gave an LC retention time of 11 min. In the case of `c1ccc2c3c([nH]c2c1)CCCC3`, the LC retention time is reported as 15.7 min. `O=C(C=Cc1ccccc1)c1cc(O)ccc1O` gave an LC retention time of 12.5 min. Work on `NCCCOc1ccccc1` yielded an LC retention time of 8.2 min. For `Cn1c(=O)c2cc(C(=O)O)ccc2n(C)c1=O`, the LC retention time was 8.5 min. With `CCOc1cc(C(=O)Nc2ccc(OC)c(OC)c2)cc(OCC)c1OCC` the LC retention time was 14.4 min. For `COCc1cc(=O)n2[nH]c(NC(C)=O)nc2n1`, the LC retention time was 6.11 min. For `O=C(Nc1cccnc1)c1cnccn1`, the LC retention time was 7.28 min. Work on `C1CCCNCCC1` yielded an LC retention time of 7.37 min. For `Nc1nc2ccccc2[nH]1`, the LC retention time was 7.69 min. Work on `O=C(NN=Cc1ccc(O)c(O)c1)c1ccc(NC(=O)c2ccccc2)cc1` yielded an LC retention time of 10.2 min. Work on `CCN(CC)c1nc(-c2ccncc2)nc2ccccc12` yielded an LC retention time of 10.2 min. `CCn1cc(-c2ccn[nH]2)c(C)n1` showed an LC retention time of 8.21 min. Work on `C=Cn1ccnc1` yielded an LC retention time of 6.3 min. `C#CCNC` showed an LC retention time of 3.51 min. With `O=c1nc(NN=Cc2cccnc2)cn[nH]1` the LC retention time was 6.94 min. Molecule `O=C(O)c1cc(N2CCCC2=O)cc(N2CCCC2=O)c1` has an LC retention time of 8.34 min. `Cc1oc(C)c(C(N)=O)c1C(N)=O` showed an LC retention time of 6.82 min. With `O=C(NCCCCc1ccccc1)C(=O)NCc1ccco1` the LC retention time was 14.3 min. Molecule `CC(C)[N+]1(C)C2CCC1CC(OC(=O)C(CO)c1ccccc1)C2` (stereo unspecified) has an LC retention time of 9.23 min. Molecule `Cc1cccc(NC(=S)NNC(=O)c2cccc(C)c2)c1` has an LC retention time of 12.3 min. With `CC12CCC(O)CC1=CCC1C2CCC2(C)C(N)CCC12` (stereo unspecified) the LC retention time was 8.88 min. `C1CCC(NC2CCCCC2)CC1` gave an LC retention time of 9.69 min. For `O=c1cc[nH]cc1`, the LC retention time was 4.89 min. In the case of `CCOC(=O)C(=CNc1ccccc1N)C(=O)OCC`, the LC retention time is reported as 12.8 min. In the case of `CC(N)C(=O)Nc1ccc2ccccc2c1` (stereo unspecified), the LC retention time is reported as 9.02 min. `Cc1cc(C(=O)O)nc2ccccc12` gave an LC retention time of 5.5 min. Molecule `CCCCOc1ccccc1N` has an LC retention time of 10.8 min. Molecule `CCCCCCN(C)C` has an LC retention time of 8.53 min. In the case of `Cc1cc(=O)[nH]c(C(C)C)n1`, the LC retention time is reported as 6.9 min. Work on `O=c1c(C=NCc2ccco2)c(NCc2ccco2)nc2ccccn12` yielded an LC retention time of 11.2 min. With `COc1ccc(Cc2c(O)n(C)c(=O)n(C)c2=O)c(OC)c1OC` the LC retention time was 11.2 min. In the case of `CCCCCCCCC(N)=O`, the LC retention time is reported as 12.4 min. Work on `Nc1ccncc1` yielded an LC retention time of 5.68 min. With `CCc1ccc(N2CC(C(=O)Nc3ccc(N(C)C)cc3)CC2=O)cc1` (stereo unspecified) the LC retention time was 10.4 min. Work on `c1ccc(-c2cccc(-c3ccccn3)n2)nc1` yielded an LC retention time of 9.29 min. `CN(C)CCN` showed an LC retention time of 6.51 min. With `CC1(C)CC(=O)C2=C(C1)NCN(Cc1ccccc1)C2` the LC retention time was 8.44 min. For `CC(=O)Nc1cc(=O)[nH]c(C)n1`, the LC retention time was 5.68 min. `S=C1NCN(Cc2ccccc2)CN1` showed an LC retention time of 8.28 min. In the case of `CC(C)NCCO`, the LC retention time is reported as 5.44 min. For `CC(C)CNC(=O)C(=O)Nc1ccc(N(C)C)cc1`, the LC retention time was 9.98 min. Work on `Nc1nc(N)c2nc(-c3ccccc3)c(N)nc2n1` yielded an LC retention time of 8.71 min. Molecule `CCCNC(C)C(=O)Nc1ccccc1C` (stereo unspecified) has an LC retention time of 9.17 min. For `Cc1ccc(CNC2CCCC2)o1`, the LC retention time was 8.53 min. With `CN(CCCN)CCCN` the LC retention time was 7.45 min. Work on `CC(=O)NCCC1CCCCN1` (stereo unspecified) yielded an LC retention time of 6.55 min. `NCc1ccccc1CN` showed an LC retention time of 7.03 min. Work on `Cc1cc(C)c2c(=O)n(CC(=O)NCCC(C)C)c(=O)n(-c3ccccc3)c2n1` yielded an LC retention time of 14.4 min. `CC1(C)CC(NC(=O)NC2CCCCC2)CC(C)(C)N1` gave an LC retention time of 8.78 min. In the case of `Cc1ccc(-c2ccc3ccccc3n2)cc1`, the LC retention time is reported as 13.4 min. `COC(=O)CN1CCCC1=O` showed an LC retention time of 6.91 min. `CN(c1ccccc1)c1ccc(C=C2CCc3ccccc3C2=O)cc1` showed an LC retention time of 20.3 min. `Cc1cc[n+](CCC(=O)O)c2ccccc12` showed an LC retention time of 7.41 min. `CC(C)(C=O)CN1CCCC1` gave an LC retention time of 6.76 min. Molecule `COC(=O)CCc1ccc(C)c(N)c1` has an LC retention time of 9.03 min. For `O=C(O)c1cc(=O)n(-c2ccc(S(=O)(=O)O)cc2)[nH]1`, the LC retention time was 2.18 min. `COc1cccc(C=NNC(=O)c2ccccc2)c1OC` showed an LC retention time of 11.7 min. Molecule `CCOC(=O)C1=C(C(=O)OC)CN(c2ccccc2)N1` has an LC retention time of 13.7 min. `COC(=O)c1c[nH]c2ccccc12` gave an LC retention time of 10.9 min. For `O=C(C(Cc1ccccc1)n1cccc1)N1CCCC1` (stereo unspecified), the LC retention time was 13.8 min. `Cc1cc(C)cc(NC(=O)c2cc(-c3ccccc3)nc3ccccc23)c1` showed an LC retention time of 17.9 min. For `O=C(O)c1c[nH]c(=O)[nH]1`, the LC retention time was 1.64 min. `O=c1cnc(-c2ccccc2)c(-c2ccccc2)[nH]1` gave an LC retention time of 11.1 min. With `CCc1ccc(NCCC(=O)c2ccc3c(c2)Cc2ccccc2-3)cc1` the LC retention time was 16.3 min. `NCCn1cnc2ccccc2c1=O` gave an LC retention time of 7.46 min. For `Cc1cccc(C(=O)N2CCc3c([nH]c4ccccc34)C2c2ccccc2)c1` (stereo unspecified), the LC retention time was 17.8 min. For `Cc1cn(-c2ccccc2)[nH]c1=O`, the LC retention time was 10.8 min. In the case of `O=c1ccoc2ccccc12`, the LC retention time is reported as 9.31 min. `c1ccc2c(Sc3nccc4ccccc34)nccc2c1` gave an LC retention time of 14.4 min. `CC(=O)C(C)(C)C(C)=NN=C(N)c1ccc(C)cc1` gave an LC retention time of 9.26 min. Molecule `Cn1c(=O)[nH]c(=O)n(C)c1=O` has an LC retention time of 5.9 min. `N=C(N=C(N)N)N1CCSCC1` showed an LC retention time of 7.17 min. In the case of `COc1ccc(Cc2c(O)n(-c3ccccc3)c(=O)[nH]c2=O)c(OC)c1`, the LC retention time is reported as 11.6 min. `NNC(=O)C(O)C(O)C(=O)NN` (stereo unspecified) gave an LC retention time of 1.94 min. In the case of `CCC(N)CC`, the LC retention time is reported as 7.05 min. In the case of `C=CCN(C)C`, the LC retention time is reported as 5.73 min. Molecule `CC(=O)OC1(C(C)=O)CCC2C3CC(C)C4=CC(=O)CCC4(C)C3CCC21C` (stereo unspecified) has an LC retention time of 17 min. In the case of `Cc1cc(-c2noc(C(c3ccccc3)c3ccccc3)n2)c2ccccc2n1`, the LC retention time is reported as 16.9 min. In the case of `Cn1c(=N)n(CC(=O)c2ccccc2)c2ccccc21`, the LC retention time is reported as 10 min. In the case of `O=C(O)c1ccncn1`, the LC retention time is reported as 2 min. For `C[N+](C)(C)c1ccccc1`, the LC retention time was 7 min. `CN(C)CCC=C1c2ccccc2C=Cc2ccccc21` gave an LC retention time of 11.6 min. Work on `O=C(Nc1ccc(Nc2ccccc2)cc1)C(c1ccccc1)c1ccccc1` yielded an LC retention time of 17.1 min. In the case of `CCSc1cccc2cccnc12`, the LC retention time is reported as 11.7 min. For `c1ccc(C(c2ccccc2)c2nc(-c3ccncc3)no2)cc1`, the LC retention time was 14.9 min. Molecule `CN1CCCCC1=O` has an LC retention time of 7.29 min. Molecule `CC(=O)Nc1ccccc1N` has an LC retention time of 6.82 min. `N=C(N)c1ccc(N)cc1` gave an LC retention time of 6.62 min. `c1ccc(C2=Nc3ccccc3Oc3ccccc32)cc1` showed an LC retention time of 18.1 min. With `O=C(CCc1ccccc1)NNC(=S)NCc1ccccc1` the LC retention time was 12.4 min. `COC(=O)c1nnc(-c2ccccc2)c(-c2ccccc2)n1` gave an LC retention time of 13.6 min. Work on `CCc1nc2ccccc2[nH]1` yielded an LC retention time of 7.88 min. For `Cc1ccsc1CNC(C)c1ccccc1` (stereo unspecified), the LC retention time was 9.76 min. Work on `c1ccc2c3c([nH]c2c1)CCCCC3` yielded an LC retention time of 16.6 min. Work on `CNC(=S)NNC(C)=O` yielded an LC retention time of 2.17 min. `CC1CC(C)(C)Nc2c(O)cccc21` (stereo unspecified) gave an LC retention time of 8.99 min. In the case of `Cc1[nH]c2ccccc2c1Cc1nc2ccccc2[nH]1`, the LC retention time is reported as 9.93 min. With `CN(C)c1nc(N(C)C)nc(N2CCCCC2)n1` the LC retention time was 11.2 min. In the case of `CCOC(=O)c1ccc2[nH]c3c(c2c1)CCCC3C(=O)OCC` (stereo unspecified), the LC retention time is reported as 16.2 min. With `CC(C)NCC(O)COc1cccc2[nH]ccc12` (stereo unspecified) the LC retention time was 8.75 min. In the case of `O=C1CC(N2CCN(C(c3ccccc3)c3ccccc3)CC2)C(=O)N1c1ccccc1` (stereo unspecified), the LC retention time is reported as 11.2 min. `O=C(O)c1cc(-c2ccncc2)nc2ccccc12` showed an LC retention time of 8.16 min. `Nc1cccc2cc[nH]c12` gave an LC retention time of 8.08 min. `CC(C)OC(C)n1cccc1-c1ccccc1` (stereo unspecified) gave an LC retention time of 17.7 min. Work on `CN1CCC2(CC1)NC(=O)N(c1ccccc1)N2` yielded an LC retention time of 7.95 min. `CC(C)CNCCN1CCOCC1` showed an LC retention time of 7.31 min. For `CC(c1ccccc1)N1CNc2c(c(=O)[nH]c(=O)n2Cc2ccccc2)C1` (stereo unspecified), the LC retention time was 9.33 min. For `CCOC(=O)C1C(C)=NC(=O)NC1C` (stereo unspecified), the LC retention time was 8.75 min. `CC1(C)CC(NCC(=O)NC2CC(C)(C)NC(C)(C)C2)CC(C)(C)N1` gave an LC retention time of 7.71 min. In the case of `Nc1ccc(NC(=O)Nc2ccc(N)cc2)cc1`, the LC retention time is reported as 7.24 min. Work on `CN(C)C(=O)Oc1cc(OC(=O)N(C)C)cc(C(O)CNC(C)(C)C)c1` (stereo unspecified) yielded an LC retention time of 9.59 min. For `Cc1[nH]c(C)c(C=O)c1C=O`, the LC retention time was 7.42 min. `O=C1CCCc2c1[nH]c1ccc(C3CCCCC3)cc21` gave an LC retention time of 18.7 min. In the case of `CN(C)C(CN)c1ccco1` (stereo unspecified), the LC retention time is reported as 7.02 min. With `CC(C)C[NH2+]C(CC(=O)O)c1ccccc1` (stereo unspecified) the LC retention time was 8.51 min. `CCN(CC)CCCN` showed an LC retention time of 6.92 min. For `CNC(=O)CC1Nc2ccccc2NC1=O` (stereo unspecified), the LC retention time was 7.34 min. Work on `c1ccc(-c2cnc(-c3cccc4ccccc34)o2)cc1` yielded an LC retention time of 19.4 min. With `CC(=O)Oc1ccccc1C=Cc1nc2ccccc2c(=O)o1` the LC retention time was 14.8 min. Molecule `O=C(Cc1ccccc1)Nc1ccc(-c2nc(-c3ccccc3)c3cc(NC(=O)Cc4ccccc4)ccc3n2)cc1` has an LC retention time of 17.8 min. `CN(C)c1ccc(C=NNC(=O)Cc2n[nH]c(=O)[nH]c2=O)cc1` gave an LC retention time of 8.47 min.
